target: T1, Human Recombinant Matriptase 2 (Homo sapiens, UniProt Q8IU80); assay: Matriptase 2 inhibition, fluorescence based assay (Method I); type: biochemical; details: Table A; Ki of Matriptase-2 given as class symbols; read-out: Mat-2 Ki
T1 construct: made in house
T1 sequence (Q8IU80 1-811): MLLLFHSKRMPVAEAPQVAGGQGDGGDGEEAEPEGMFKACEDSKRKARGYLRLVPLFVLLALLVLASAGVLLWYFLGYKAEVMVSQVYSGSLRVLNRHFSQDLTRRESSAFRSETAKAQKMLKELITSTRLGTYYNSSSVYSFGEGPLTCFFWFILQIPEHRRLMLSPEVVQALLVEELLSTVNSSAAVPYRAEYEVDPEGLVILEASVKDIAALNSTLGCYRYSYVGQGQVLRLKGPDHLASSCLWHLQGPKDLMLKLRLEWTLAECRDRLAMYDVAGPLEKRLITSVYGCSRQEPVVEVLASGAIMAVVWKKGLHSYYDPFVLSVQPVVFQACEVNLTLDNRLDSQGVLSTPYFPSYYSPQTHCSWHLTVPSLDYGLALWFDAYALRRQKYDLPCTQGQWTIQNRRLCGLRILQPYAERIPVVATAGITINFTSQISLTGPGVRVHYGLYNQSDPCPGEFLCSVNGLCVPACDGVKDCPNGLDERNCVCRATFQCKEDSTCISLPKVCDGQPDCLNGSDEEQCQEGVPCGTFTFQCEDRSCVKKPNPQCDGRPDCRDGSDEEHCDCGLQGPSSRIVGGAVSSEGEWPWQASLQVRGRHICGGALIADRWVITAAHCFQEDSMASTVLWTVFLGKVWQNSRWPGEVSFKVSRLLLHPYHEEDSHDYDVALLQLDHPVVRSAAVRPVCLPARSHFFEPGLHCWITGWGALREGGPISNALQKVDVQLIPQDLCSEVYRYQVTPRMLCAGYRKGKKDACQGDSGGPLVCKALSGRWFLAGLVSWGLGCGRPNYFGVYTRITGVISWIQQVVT
Method in brief: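 In-house recombinant enzyme (3.5 nM), preincubated 30 min with compound, then Boc-Gln-Ala-Arg-AMC substrate (62 μM) in 50 mM Tris pH 7.5, 150 mM NaCl, 0.01% gelatin, 1% DMSO, 25 °C. Fluorescence (Ex 360/Em 480 nm) read 60 min after substrate; IC50 from variable-slope sigmoidal fit of % inhibition.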

| Structure (SMILES) | Ki |
| --- | --- |
| NCc1ccc2cc(C(=O)OCCO)n(Cc3cc(NS(=O)(=O)CC[C@@H]4CCCN4)cc4ccccc34)c2n1 [Compound 260, 2-hydroxyethyl 6-(aminomethyl)-1-[(3-{2-[(2S)-pyrrolidin-2-yl]-ethanesulfonamido}naph-thalen-1-yl)methyl]-1H-pyrrolo[2,3-b]pyridine-2-carboxylate] | 100 to 500 nM |
| NCc1ccc2cc(C(=O)O)n(Cc3cc(NS(=O)(=O)CCCn4cnnn4)cc4ccccc34)c2n1 [Compound 264, 6-(aminomethyl)-1-({3-[3-(1H-1,2,3,4-tetrazol-1-yl)propanesulfonamido]-naphthalen-1-yl}methyl)-1H-pyrrolo[2,3-b]pyr-idine-2-carboxylic acid] | 100 to 500 nM |
| CCN(CC)CCS(=O)(=O)Nc1cc(Cn2c(C(=O)O)cc3ccc(CN)nc32)c2ccccc2c1 [Compound 265, 6-(aminomethyl)-1-({3-[2-(diethylamino)ethane-sulfonamido]naphthalen-1-yl}methyl)-1H-pyr-rolo[2,3-b]pyridine-2-carboxylic acid] | 100 to 500 nM |
| CC(C)(C)S(=O)(=O)N1CCC(CS(=O)(=O)Nc2cc(Cn3c(C(=O)O)cc4ccc(CN)nc43)c3ccccc3c2)CC1 [Compound 267, 6-(aminomethyl)-1-[(3-{[1-(2-methylpropane-2-sulfonyl)piperidin-4-yl]-methanesulfonamido}-naphthalen-1-yl)methyl]-1H-pyrrolo[2,3-b]pyr-idine-2-carboxylic acid] | 100 to 500 nM |
| CC(C)(C)OC(=O)N1CC[C@H](S(=O)(=O)Nc2cc(Cn3c(C(=O)O)cc4ccc(CN)nc43)c3ccccc3c2)C1 [Compound 268] | 100 to 500 nM |
| CCOC(=O)c1cc2ccc(CN)nc2n1Cc1cc(NS(=O)(=O)CC[C@@H]2CCCN2)cc2ccccc12 [Compound 269, ethyl 6-(aminomethyl)-1-[(3-{2-[(2S)-pyrrolidin-2-yl]ethanesulfonamido}-naphthalen-1-yl)methyl]-1H-pyrrolo[2,3-b]pyr-idine-2-carboxylate] | 500 to 3000 nM |
| CC(C)OC(=O)c1cc2ccc(CN)nc2n1Cc1cc(NS(=O)(=O)CC[C@@H]2CCCN2)cc2ccccc12 [Compound 270, propan-2-yl 6-(amino-methyl)-1-[(3-{2-[(2S)-pyrrolidin-2-yl]ethane-sulfonamido}naphthalen-1-yl)methyl]-1H-pyrrolo-[2,3-b]pyridine-2-car-boxylate] | 500 to 3000 nM |
| CN(C)CCOC(=O)c1cc2ccc(CN)nc2n1Cc1cc(NS(=O)(=O)CC2CCNCC2)cc2ccccc12 [Compound 271, 2-(dimethylamino)ethyl 6-(aminomethyl)-1-({3-[(piperidin-4-yl)meth-anesulfonamido]naph-thalen-1-yl}methyl)-1H-pyrrolo[2,3-b]pyridine-2-carboxylate] | 500 to 3000 nM |
| C[C@@H]1OCCC1S(=O)(=O)Nc1cc(Cn2c(C(=O)O)cc3ccc(CN)nc32)c2ccccc2c1 (stereo partly drawn) [Compound 272, 6-(aminomethyl)-1-({3-[(2S)-2-methyloxolane-3-sulfonamido]naph-thalen-1-yl}methyl)-1H-pyrrolo[2,3-b]pyridine-2-carboxylic acid] | 500 to 3000 nM |
| CC(C)(C)OC(=O)N1CCC(CCS(=O)(=O)Nc2cc(Cn3c(C(=O)O)cc4ccc(CN)nc43)c3ccccc3c2)CC1 [Compound 274, 6-(aminomethyl)-1-{[3-(2-{1-[(tert-butoxy)car-bonyl]piperidin-4-yl}-ethanesulfonamido)naph-thalen-1-yl]methyl}-1H-pyrrolo[2,3-b]pyridine-2-carboxylic acid] | 500 to 3000 nM |
| CC(=O)OC(C)OC(=O)c1cc2ccc(CN)nc2n1Cc1cc(NS(=O)(=O)CC[C@@H]2CCCN2)cc2ccccc12 (stereo partly drawn) [Compound 275, 1-[6-(aminomethyl)-1-[(3-{2-[(2S)-pyrrolidin-2-yl]ethanesulfonamido}naphthalen-1-yl)methyl]-1H-pyrrolo[2,3-b]pyr-idine-2-carbonyloxy]-ethyl acetate] | 500 to 3000 nM |
| NCc1ccc2cc(C(=O)O)n(Cc3cc(NS(=O)(=O)[C@@H]4CCOC4)cc4ccccc34)c2n1 [Compound 276] | 500 to 3000 nM |
| CNCCOC(=O)c1cc2ccc(CN)nc2n1Cc1cc(NS(=O)(=O)CC2CCNCC2)cc2ccccc12 [Compound 278, 2-(methylamino)ethyl 6-(aminomethyl)-1-({3-[(piperidin-4-yl)methane-sulfonamido]naphthalen-1-yl}methyl)-1H-pyr-rolo[2,3-b]pyridine-2-carboxylate] | 500 to 3000 nM |
| NCc1ccc2cc(C(=O)O)n(Cc3cc(NS(=O)(=O)C4CCCCC4)cc4ccccc34)c2n1 [Compound 279, 6-(aminomethyl)-1-[(3-cyclohexanesulfon-amidonaphthalen-1-yl)-methyl]-1H-pyrrolo[2,3-b]pyridine-2-carboxylic acid] | 500 to 3000 nM |
| NCc1ccc2cc(C(=O)O)n(Cc3cc(NS(=O)(=O)[C@H]4CCOC4)cc4ccccc34)c2n1 [Compound 280, 6-(aminomethyl)-1-({3-[(3S)-oxolane-3-sulfon-amido]naphthalen-1-yl}-methyl)-1H-pyrrolo[2,3-b]pyridine-2-carboxylic acid] | 500 to 3000 nM |
| CN1CCC(COC(=O)c2cc3ccc(CN)nc3n2Cc2cc(NS(=O)(=O)CC[C@H]3CCCN3)cc3ccccc23)CC1 [Compound 281, (1-methylpiperidin-4-yl)methyl 6-(aminometh-yl)-1-[(3-{2-[(2R)-pyr-rolidin-2-yl]ethanesul-fonamido}naphthalen-1-yl)methyl]-1H-pyrrolo-[2,3-b]pyridine-2-car-boxylate] | 500 to 3000 nM |
| CNCCOC(=O)c1cc2ccc(CN)nc2n1Cc1cc(NS(=O)(=O)CC[C@@H]2CCCN2)cc2ccccc12 [Compound 283, 2-(methylamino)ethyl 6-(aminomethyl)-1-[(3-{2-[(2S)-pyrrolidin-2-yl]-ethanesulfonamido}-naphthalen-1-yl)methyl]-1H-pyrrolo[2,3-b]pyr-idine-2-carboxylate] | 500 to 3000 nM |
| CN(C)CCOC(=O)c1cc2ccc(CN)nc2n1Cc1cc(NS(=O)(=O)CC[C@@H]2CCCN2)cc2ccccc12 [Compound 284, 2-(dimethylamino)ethyl 6-(aminomethyl)-1-[(3-{2-[(2S)-pyrrolidin-2-yl]ethanesulfonamido}-naphthalen-1-yl)methyl]-1H-pyrrolo[2,3-b]pyr-idine-2-carboxylate] | 500 to 3000 nM |
| NCc1ccc2cc(C(=O)O)n(Cc3cc(NS(=O)(=O)Cc4ccccc4)cc4c3CCCC4)c2n1 [Compound 285, 6-(aminomethyl)-1-((3-((phenylmethyl)sulfonamido)-5,6,7,8-tetrahydronaphthalen-1-yl)methyl)-1H-pyrrolo[2,3-b]pyridine-2-carboxylic acid] | 100 to 500 nM |
| CN1CCC(COC(=O)c2cc3ccc(CN)nc3n2Cc2cc(NS(=O)(=O)Cc3ccccc3)cc3c2CCCC3)CC1 [Compound 286, (1-methylpiperidin-4-yl)methyl 6-(aminomethyl)-1-((3-((phenylmethyl)sulfonamido)-5,6,7,8-tetrahydronaphthalen-1-yl)methyl)-1H-pyrrolo[2,3-b]pyridine-2-carboxylate] | ≤ 100 nM |
| NCc1ccc2cc(C(=O)O)n(Cc3cc(NS(=O)(=O)Cc4ccsc4)cc4c3CCCC4)c2n1 [Compound 287, 6-(aminomethyl)-1-({3-[(thiophen-3-yl)methane-sulfonamido]-5,6,7,8-tetrahydronaphthalen-1-yl}methyl)-1H-pyrrolo-[2,3-b]pyridine-2-carbox-ylic acid] | 100 to 500 nM |
| COCCN1CCN(C(=O)Nc2cc(Cn3c(C(=O)O)cc4ccc(CN)nc43)c3ccccc3c2)CC1 [Compound 288, 6-(aminomethyl)-1-((3-(4-(2-methoxyethyl)piperazine-1-carboxamido)naphthalen-1-yl)methyl)-1H-pyrrolo[2,3-b]pyridine-2-carboxylic acid] | 100 to 500 nM |
| CN1CCC[C@H]1CCOC(=O)Nc1cc(Cn2c(C(=O)O)cc3ccc(CN)nc32)c2ccccc2c1 [Compound 289, (S)-6-(aminomethyl)-1-((3-(((2-(1-methylpyrrolidin-2-yl)ethoxy)carbonyl)amino)naphthalen-1-yl)methyl)-1H-pyrrolo[2,3-b]pyridine-2-carboxylic acid] | 100 to 500 nM |
| CCOC(=O)c1cc2ccc(CN)nc2n1Cc1cc(NS(=O)(=O)Cc2ccsc2)cc2ccccc12 [Compound 291] | 100 to 500 nM |
| NCc1ccc2cc(C(=O)O)n(Cc3cc(NC(=O)NCC4CCN(S(=O)(=O)C5CC5)CC4)cc4ccccc34)c2n1 [Compound 292, 6-(aminomethyl)-1-({3-[({[1-(cyclopropanesul-fonyl)piperidin-4-yl]-methyl}carbamoyl)-amino]naphthalen-1-yl}-methyl)-1H-pyrrolo[2,3-b]pyridine-2-carboxylic acid] | 100 to 500 nM |
